Activity calls are given as the source filed them. No cut-off for these calls is given here.

27 compounds from ChEMBL document CHEMBL1833933, “Relationship between the structures of flavonoids and their NF-κB-dependent transcriptional activities” (Bioorg Med Chem Lett, 2011) can be followed below.

One test relates to HCT-116. Nature of the test: Inhibition of NF-kappaB activation expressed in HCT116 cells assessed as inhibition of TNF-alpha-induced transcriptional activation at 10 uM after 12 hrs by luciferase reporter gene assay relative to control. Particulars: values are per cent of control. Type of test: cell-based. (In general: A reporter such as luciferase makes a cellular process visible.)
For `COc1cc(OC)c2c(=O)cc(-c3ccc(OC)c(OC)c3)oc2c1`, the residual activity was 124%. For the compound `COc1cc(/C=C/C(=O)c2ccccc2OC)cc(OC)c1`, the residual activity worked out at 61.1%.

As for `O=c1c(O)c(-c2ccc(O)c(O)c2)oc2c(O[C@@H]3O[C@H](CO)[C@@H](O)[C@H](O)[C@H]3O)c(O)cc(O)c12`, the residual activity was 99.1%. The same measure, in the same setting: to `O=c1cc(-c2ccccc2)oc2ccc3ccccc3c12` belongs 150%; to `O=c1cc(-c2cccc(O)c2)oc2cccc(O)c12`, 126%. With `COc1cccc(-c2cc(=O)c3ccccc3o2)c1OC`, the residual activity turned out to be 100%. Take `COc1ccc2c(c1)OC(c1cc(OC)c(OC)c(OC)c1)CC2=O` (stereo not drawn): the residual activity amounted to 99.8%. Take `O=c1cc(-c2ccccc2)oc2c1ccc1ccccc12`: the residual activity was 91.4%. Regarding `COc1ccc(-c2coc3cc(OC)cc(OC)c3c2=O)cc1`, the residual activity was 123%.

`COc1cc(O)c2c(=O)c(-c3ccc(O)cc3)coc2c1`: the residual activity was found to be 105%. Regarding `COc1cccc2c1C(=O)CC(c1ccccc1)O2` (stereo not drawn), the residual activity stood at 108%. For `COc1ccc(/C=C/C(=O)c2ccc(OC)cc2O)cc1`, the residual activity was 83.1%. On to `O=C1C[C@@H](c2ccc(O)cc2)Oc2cc(O)cc(O)c21`, for which the residual activity is 135%. As to `O=c1cc(-c2ccccc2)oc2ccccc12`, the residual activity worked out at 113%. Regarding `COc1ccc(-c2cc(=O)c3c(OC)cc(OC)cc3o2)cc1`, the residual activity was 89.9%. Still for that read-out and setting: to `COc1cc(OC)c2c(c1)OC(c1ccccc1)CC2=O` (stereo not drawn) belongs 126%; to `COc1cc(-c2oc3cc(O)cc(O)c3c(=O)c2O[C@@H]2O[C@H](CO)[C@@H](O)[C@H](O)[C@H]2O)ccc1O`, 115%; to `O=c1cc(-c2ccccc2)oc2cccc(O)c12`, 116%. `COc1ccccc1-c1cc(=O)c2ccc3ccccc3c2o1`: the residual activity stood at 65.1%. Consider `Cc1c(-c2ccccc2)oc2c(C(=O)O)cccc2c1=O`, for which the residual activity was 143%. On the same count and under the same terms, to `COc1cccc2oc(-c3ccccc3)cc(=O)c12` belongs 63.9%; to `COc1cc(-c2cc(=O)c3ccccc3o2)ccc1O`, 105%; to `COc1cccc(/C=C/C(=O)c2cc(OC)cc(OC)c2)c1`, 77.4%. Take `COc1ccc2c(=O)c(-c3ccccc3)coc2c1`: the residual activity is 132%. On to `COc1cccc2oc(-c3ccc(O)cc3)cc(=O)c12`, for which the residual activity was 87.7%. Consider `O=c1cc(-c2cccc(O)c2O)oc2ccccc12`, for which the residual activity is 109%.

In the next test the test system is HCT-116. Nature of the test: Inhibition of TNF-alpha-induced NF-kappaB activation expressed in HCT116 cells assessed as reduction of RelA phosphorylation at Ser536 at 20 uM treated 30 mins before TNFalpha challenge by immunofluorescence microscopic analysis. It is filed as cell-based.
Conditions: not given
On to `COc1cc(/C=C/C(=O)c2cc(OC)cc(OC)c2)cc(OC)c1`, for which the inhibition entry was “Active”.

In another test the test system is HCT-116. Nature of the test: Inhibition of TNF-alpha-induced NF-kappaB activation expressed in HCT116 cells assessed as reduction of IkappaB phosphorylation at Ser32 at 20 uM treated 30 mins before TNFalpha challenge by Western blot analysis. Type of test: cell-based.
Conditions: not given
In the case of `COc1cc(/C=C/C(=O)c2cc(OC)cc(OC)c2)cc(OC)c1`, the inhibition result was “Active”.
